Columns and labels:
[1] = Complete blood counts of moribund cisplatin-treated mice after BMNC transplantation; type: in vivo; settings: after BMT
Description: (§1) To protect from kidney damage, mice were simultaneously subcutaneously (s.c.) injected with 1 mL of saline solution. Four weeks after the last injection of cisplatin, mice were euthanized for analysis, transplanted (see below) or mobilized with granulocyte colony-stimulating factor (G-CSF, see below).
(§2) Mice were irradiated (1,200 cGy, two split doses, 3 hours apart) in a Cesium Mark 1 irradiator (JL Shepperd & associates). Three hours later, the indicated number of BMNCs was injected retroorbitally in the irradiated recipients under isoflurane (Phoenix Pharmaceuticals) anesthesia. Mice were allowed to recover and analyzed at the indicated time points.
Blood was harvested by retro-orbital sampling of mice anesthetized with isoflurane and collected in polypropylene tubes containing ethylenediaminetetraacetic acid (EDTA). Blood parameters were determined with an AcT differential counter (Beckman-Coulter). CFU-C assays were performed as described in He et al., Ann. Rev. Cell. Dev. Biol. 25:377 (2009), incorporated herein by reference. For flow cytometry, red blood cells were lysed thrice for 5 minutes at 4° C. in 0.15 M NH4Cl, cells were washed once in ice-cold PBS and counted in a hemocytometer. […] Cells were further stained with streptavidin-Cy5 (Jackson Immunotech) and analyzed with a BD LSR11 system (BD Biosciences). […] CFU-C and Lin^−Sca1^+c-kit^+ft13^− numbers were determined as above. […]

[2] = design: species or system mice; settings: mouse, in vivo
Description: as §1
To induce neuroprotection from 60HDA, mice were injected with 4-MC (10 μg/kg; i.p.) or GDNF-Fc (5 μg per mice; s.c.) for 5 days, starting the treatment the same day as the first injection of 60HDA.
Mice received G-CSF ([…]) s.c. every 12 hours for 5 days. Due to circadian oscillations on HSC mobilization, the last dose of G-CSF was administered 1 hour before blood collection at Zeigeber time 5.
Blood was harvested by retro-orbital sampling of mice anesthetized with isoflurane and collected in polypropylene tubes containing ethylenediaminetetraacetic acid (EDTA). Blood parameters were determined with an AcT differential counter (Beckman-Coulter). CFU-C assays were performed as described in He et al., Ann. Rev. Cell. Dev. Biol. 25:377 (2009), incorporated herein by reference. For flow cytometry, red blood cells were lysed thrice for 5 minutes at 4° C. in 0.15 M NH4Cl, cells were washed once in ice-cold PBS and counted in a hemocytometer. […] Cells were further stained with streptavidin-Cy5 (Jackson Immunotech) and analyzed with a BD LSR11 system (BD Biosciences). Bone marrow was harvested by flushing the bone with 1 mL of ice-cold PBS, red blood cells were lysed once for 5 minutes at 4° C. in 0.15 M NH4Cl, cells were washed once in ice-cold PBS and counted with a hemocytometer. CFU-C and Lin^−Sca1^+c-kit^+ft13^− numbers were determined as above. In some experiments, CD150^+CD48^− cell numbers were determined by staining 5×10^6 cells with PE-anti-CD48 antibody (BD Biosciences) and PE-Cy7-anti-CD150 antibody (Biolegend).

bone marrow = assay: Bone marrow hematopoietic recovery after transplantation (BMNC, CFU-C, Lin-Sca1+c-kit+flt3- cells); type: in vivo, mice
Description: as §2, with “points. […]” for “points.”
Blood was harvested by retro-orbital sampling of mice anesthetized with isoflurane and collected in polypropylene tubes containing ethylenediaminetetraacetic acid (EDTA). Blood parameters were determined with an AcT differential counter (Beckman-Coulter). CFU-C assays were performed as described in He et al., Ann. Rev. Cell. Dev. Biol. 25:377 (2009), incorporated herein by reference. For flow cytometry, red blood cells were lysed thrice for 5 minutes at 4° C. in 0.15 M NH4Cl, cells were washed once in ice-cold PBS and counted in a hemocytometer. To determine Lin^−Sca1^+c-kit^+ or Lin^−Sca1^+c-kit^+ft13^− numbers, 10^6 cells were stained with the Mouse Lineage Panel (BD Biosciences) together with FITC-conjugated anti-Sca-1 antibody (BD Biosciences), PE-Cy7-conjugated anti-c-kit antibody (eBioscience) and PE-conjugated anti-flt3 antibody (eBioscience). Cells were further stained with streptavidin-Cy5 (Jackson Immunotech) and analyzed with a BD LSR11 system (BD Biosciences). Bone marrow was harvested by flushing the bone with 1 mL of ice-cold PBS, red blood cells were lysed once for 5 minutes at 4° C. in 0.15 M NH4Cl, cells were washed once in ice-cold PBS and counted with a hemocytometer. CFU-C and Lin^−Sca1^+c-kit^+ft13^− numbers were determined as above. In some experiments, CD150^+CD48^− cell numbers were determined by staining 5×10^6 cells with PE-anti-CD48 antibody (BD Biosciences) and PE-Cy7-anti-CD150 antibody (Biolegend).

[3] = type: in vivo; settings: cisplatin-treated vs saline mice, seven weekly injections; listed as Cisplatin
Description: To protect from kidney damage, mice were simultaneously subcutaneously (s.c.) injected with 1 mL of saline solution. Four weeks after the last injection of cisplatin, mice were euthanized for analysis, transplanted (see below) or mobilized with granulocyte colony-stimulating factor (G-CSF, see below). […] To induce neuroprotection from 60HDA, mice were injected with 4-MC (10 μg/kg; i.p.) or GDNF-Fc (5 μg per mice; s.c.) for 5 days, starting the treatment the same day as the first injection of 60HDA. To evaluate the effect of different treatments on the sensory response, the hot-plate test was performed as described in Raaijmakers et al., Curr. Opin. Hematol. 15:301 (2008), incorporated herein by reference. An Isotemp Dryblock (Fisher Scientific) was heated to, and maintained at, 50° C. Mice were individually placed on top of the heated surface and the time to the first episode of nociception (jumping or paw licking) was measured. The cut-off time was 60 seconds. Between measurements, the heated surface was thoroughly cleaned with detergent and ethanol and the temperature was allowed to stabilize at 50° C.

TH+ fibers = assay: Immunofluorescence quantification of TH+ sympathetic fibers in bone marrow / calvaria; settings: compared with vehicle control
Description: Bones were collected and fixed for 1 hour in 4% paraformaldehyde (PFA) in PBS (Electron Microscopy Sciences) at 4° C. They were then post-fixed overnight in 1% PFA in PBS at 4° C. and cryoprotected for 24 hours in 30% sucrose. Bones were then included in OCT (Tissue Tek), sectioned (14 μm sections) in a Cryostat, and mounted on CFSA 4× Slides (Leica). TH^+ immunofluorescence staining was performed as previously described in Mendez-Ferrer, et al., Nature 452:442 (2008), incorporated herein by reference. For each mouse analyzed, the number of nerve fibers in 6 fields was quantified and plotted as per mm^2. For whole-mount immunofluorescence, calvaria were harvested by cutting along the temporal lines of the skull and immediately fixed in methanol. Bone tissues were blocked/permeabilized in PBS containing 20% FCS and 0.5% Triton and stained with APC-conjugated anti-PECAM CD31 antibody and TH (Millipore). Signal amplification for TH staining was achieved by using a signal amplification kit (Perkin Elmer). Whole-mount tissues were imaged face-down on an upright Olympus BX61WI microscope. The area between the frontal and parietal bones was identified by moving along the coronal suture and images were obtained from the same area for all mice, along the coronal vein on either side of the central vein. The numbers of individual nerve fibers running alongside blood vessels were quantified and plotted as per 100 μm vessel segment. All images were processed using Slidebook software (Intelligent Imaging Innovations, Inc.).

PC12ES cells = assay: Neural differentiation of PC12ES cells; type: cell-based; settings: incubation for 1 week
Description: The murine cDNA for glial cell-line derived neurotrophic factor (Gdnf) was obtained from Open Biosystems. This cDNA was amplified and restriction sites were added for cloning with the following primers Forward: ACGCTAGCAATGGGATTCGGGCCACTT (SEQ ID NO:1); Reverse: CGAGATCTGCGATACATCCACACCGTTTAG (SEQ ID NO:2). The PCR product was purified and cloned into the PCL5.1neg plasmid to generate PCL5.1neg-GDNF. This plasmid was purified and transfected into 293T cells. Two days after transfection, the supernatant was collected and GDNF-Fc purified in a Protein G-sepharose column (Pierce). To assess functional activity of GDNF-Fc recombinant protein, PC12ES cells were cultured in DMEM supplemented with 5% FBS, 10% horse serum, sodium-pyruvate (Gibco), L-Glutamine (Gibco) and penicillin/streptomycin (Gibco) for 3 days and then the media was replaced with DMEM supplemented with 1% horse serum, sodium-pyruvate (Gibco), L-Glutamine (Gibco), penicillin/streptomycin (Gibco) and varying amounts of GDNF-Fc to induce differentiation. Seven days later the percentage of PC12 ES cells with two or more dendrites was scored under an inverted microscope. For each concentration of GDNF-Fc, 10 fields were analyzed.

Row | Molecule | anemia in moribund mice [1] | number of mobilized progenitors in blood after G-CSF [2] | progenitor and Lin-Sca1+c-kit+flt3- HSC numbers in BM [2] | reduction in number of mobilized progenitors in blood [2] | bone marrow cellularity of surviving mice after transplantation (bone marrow; cisplatin-treated, four weeks after BMT) | BM recovery 3 months after transplantation (bone marrow; mouse, in vivo) | HSC content by competitive repopulation assays (bone marrow; mouse, in vivo) | sensory neuropathy (latency time in nociception assay) [3] | reduction of density of TH+ fibers in bone marrow (TH+ fibers) | neural differentiation of PC12ES cells (percent differentiated) (PC12ES cells)
1 | N.N.[Cl][Pt][Cl] [cisplatin] | severe anemia | markedly reduced | no significant change | approximately 50% | severely aplastic | not yet completely recovered | reduced HSC content | induces peripheral neuropathy | 65% | 
2 | GDNF-HA: glial cell-derived neurotrophic factor-hemagluttinin fusion (protein, UniProt P39905 78-211, looked up, hemagglutinin tag, glial cell-derived neurotrophic factor-hemagluttinin fusion) Glial cell line-derived …: SPDKQMAVLPRRERNRQAAAANPENSRGKGRRGQRGKNRGCVLTAIHLNVTDLGLGYETKEELIFRYCSGSCDAAETTYDKILKNLSRNRRLVSDKVGQACCRPIAFDDDLSFLDDNLVYHILRKHSAKRCGCI |  |  |  |  |  |  |  |  |  | increase in the percent differentiation

Source: patent publication US20130230580A1, “Administration of SNS Neuroprotective Agents to Promote Hematopoietic Regeneration” (priority 2010, published 2013)
